# Assays:
# [1] = tested on: male Wistar rats (Charles River); test: Longevity study: survival of rats under lifelong treatment; type: in vivo, rat; details: for month of age in which the first animal died: saline: 9th month; for lifespan versus saline-treated peers: both doses of each substance (FIGS. 5-8), Kaplan-Meier
# Experimental: Experiments were carried out on male Wistar rats (Charles River) weighing 250-350 g received from the breeding colony of Semmelweis University. The animals were kept in a 12-hour light-dark cycle and under condition of controlled temperature (22±2° C.) and relative humidity (55±5%). Room temperature and relative humidity was checked daily. The rats were maintained on standard laboratory chow and tap water ad libitum. All procedures conformed to the European Convention for the protection of vertebrate animals used for experimental and other scientific purposes. The study was approved by the Animal Ethics Committee of Semmelweis University, Budapest (permission number: 1810/003/2004)
# (§1) The longevity study was performed on 200 male rats received from the breeding colony of the Semmelweis University. The rats were born at the end of February of 2010. After 2-month acclimation period the rats were divided randomly into 5 even groups. The longevity study started at the beginning of May 2010. Animals were observed until their natural deaths. The data in this study represent the changes observed until Oct. 31, 2012, since in the saline-treated group the last animal died on Oct. 31, 2012. As will be shown later a few rats in the enhancer-treated groups were still alive on Nov. 1, 2012.
# (§2) During the longevity study 5 rats were housed together in polycarbonate cages (height: 18 cm; wide: 42 cm; length: 44 cm) with a stainless steel on the top. Cage bedding was renewed 3 times a week (Monday, Wednesday and Friday). Bodyweight was measured once every month. The treatment started at the end of the second month of their age. […] To avoid the mixing of the groups and individuals, saline-treated rats were signed blue from 1 to 40; D-treated rats were signed green from 1 to 80 (1-40: rats treated with 0.1 mg/kg and 41-80: rats treated with 0.001 mg/kg); B-treated rats were signed black from 1 to 80 (1-40: rats treated with 0.05 mg/kg and 41-80: rats treated with 0.0001 mg/kg).
# (§3) Significance in the performance between the groups in the shuttle box was evaluated by multi-factor analysis of variance (ANOVA). Significance regarding the span of time from tumor manifestation until death in rats and regarding aging related changes in bodyweight treated chronically with the enhancer substances was analyzed by One-way ANOVA. Statistical analysis of survival rate and tumor manifestation was performed by the Kaplan-Meier method.
# fibromyxosarcoma = test: Longevity study: manifestation of subcutaneous fibromyxosarcoma (TMS effect); type: in vivo, Wistar rats; details: for month in which the last animal manifested the tumor / rats that manifested the tumor to the end of the 32nd month of age / rats that manifested the tumor when the group completed the 30th month of life / age at which the first animal manifested the tumor: N=40; for rats that manifested the tumor to the end of the 32nd month of age / rats that manifested the tumor when the group completed the 30th month of life: saline 20 rats; for age at which the first animal manifested the tumor: saline: 11th month; for span of time from tumor manifestation until death, versus saline: chronic treatment, One-way ANOVA (FIG. 13)
# Experimental: as §1, §2
# We carefully observed the appearance of the subcutaneous tumor and followed the development of the tumor until death. Histological analysis was performed post mortem on several rats taken from each group as examples.
# The subcutaneous tumors developed in the rats were measured by the two largest diameters. After sacrificing the animals, the tumors were removed, photographs were taken. Tissues were fixed immediately after removal in 10% neutral formalin (in PBS, pH7.0) for 24 hours at room temperature, dehydrated and embedded in paraffin. 3-4 micrometer thick sections were cut and stained by hematoxylin and eosin (HE) as a routine.
# as §3
# Daoy HTB-186 cell line = test: MTT proliferation assay, Daoy medulloblastoma cells; type: cell-based, human; details: 72 hours; for proliferation of cultured cells, monotherapy: nine concentrations between 10^-14 and 10^-6 M, MTT
# Experimental: (§4) Human medulloblastoma cell line, Daoy was purchased from ATCCC, UW-228 was obtained from the courtesy of Professor Silber (University of Washington, Seattle, Wash., USA).
# (§5) Daoy and UW-228-2 cell lines were maintained in culture medium (each 500 ml Minimum Essential Medium Eagle, Alpha Modification (M8042, Sigma, St Louis, USA) with 50 ml FCS (Gibco), 40 mg Gentamicin (Sandoz), 5 ml sodium-pyruvate (S8636, Sigma, St Louis, USA), 5 ml non-essential-amino acid solution (M7145, Sigma, St Louis, USA), 10 ml L-glutamin (Sigma, St Louis, USA) at 37° C. in humified 5% CO2.
# (§6) In each well 3×10^3 Daoy or UW-228-2 cells were seeded in 96-well plates (Sarstedt), solved in 100 µl of its own medium with 10% FCS. 24 hours after seeding, cells were treated for 72 hours by drugs solved in further 100 μl medium. First, both cell lines were treated by (−)-BPAP and (−)-deprenil in monotherapy to determine its dose-effect curves in concentration of 10^−6, 10^−7, […], 10^−9, 10^−10, 10^−11, 10^−12, 10^−13 and 10^−14 M. In combined treatment 10^−3, 3.3×10^−4, […] and 3.7×10^−5 M of temozolomide (Schering Plough, USA) or 0.04, 0.2, 1, 5 μM of Cisplatin (Ebewe Pharma, Austria) or 0.04, 0.2, 1, 5 μM of etoposide (Ebewe Pharma, Austria) or 10^−7, 10^−6, 10^−5 and 10^−4 μM (UW228-2) or 0.001, 0.005, 0.025 and 0.125 μM (Daoy) of Vincristin (Richter Gedeon, Hungary) were applied in monotherapy or combined with 10^−13 or 10^−8 M of (−)-BPAP or (−)-deprenil.
# (§7) Cell proliferation was evaluated by MTT (3-(4,5-Dimethylthiazol-2-yl)-2,5-diphenyltetrazolium bromide) assay (M5655, Sigma) after 72-hour treatment by the method described in manufacturer's protocol.
# UW-228-2 cell line = test: MTT proliferation assay, UW-228-2 medulloblastoma cells; type: cell-based, human; details: 72 hours; for proliferation of cultured cells, monotherapy: nine concentrations between 10^-14 and 10^-6 M, MTT
# Experimental: as §4, §5, §6, §7
# lung carcinoma = test: Longevity study on FVB/N mice: spontaneous lung carcinoma at autopsy; type: in vivo; details: for Number of detected lung carcinoma: 18 months, saline 3 of 4
# Experimental: Five groups of mice are treated daily from sexual maturity with two different doses of
# (−)-deprenyl and (−)-BPAP, respectively.
# Group 2: BPAP low dose: 0.0001 mg/kg (−)-BPAP
# Group 3: BPAP high dose: 0.05 mg/kg (−)-BPAP
# A total of 172 mice entered the experiments. Body weight is measured bimonthly.
# For monitoring, we planned to sacrifice mice from each group at 6-month, 1-year, 1.5-year and 2-year time-points; the rest of the animals are kept until spontaneous death.
# The results are shown in Table 4 and on FIGS. 19 and 20. Significance levels were calculated with two-sided Chi-square test.
# [2] = tested on: enhancer-sensitive neurons of isolated rat brain stem; details: optimal concentration for specific enhancer effect, 3-min collection period; review Knoll, 2005; cited from earlier work
# [3] = 10^-13 or 10^-8 M combined with temozolomide, Cisplatin, etoposide or Vincristin
smiles,measurement,setting,value
"CCCN[C@H](CCC)Cc1cc2ccccc2o1 [(−)-BPAP, (R)-1-(benzofuran-2-yl)-2-propylamino pentane]",month of age in which the first animal died,"[1]; 0.0001 mg/kg s.c. 3 times a week, N=40",16 month
same,rats remaining alive to the end of the 32nd month of age,"[1]; 0.0001 mg/kg, N=40, P<0.05 vs saline",one and One
same,month of age in which the first animal died,"[1]; 0.05 mg/kg s.c. 3 times a week, N=40",14 month
same,lifespan versus saline-treated peers,[1],significantly longer
same,tumor manifestation suppressing (TMS) effect versus saline,"fibromyxosarcoma; 0.0001 mg/kg, Kaplan-Meier, P<0.001 (FIG. 12)",significantly decreased
same,tumor manifestation suppressing (TMS) effect versus saline,"fibromyxosarcoma; 0.0001 mg/kg, Kaplan-Meier, P<0.001 (FIG. 12), listed as BPAP",suppressed the manifestation of the fibromyxosarcoma significantly
same,month in which the last animal manifested the tumor,fibromyxosarcoma; 0.0001 mg/kg,31 month
same,rats that manifested the tumor to the end of the 32nd month of age,fibromyxosarcoma; 0.0001 mg/kg,8 rats
same,rats that manifested the tumor when the group completed the 30th month of life,"fibromyxosarcoma; 0.0001 mg/kg, P<0.001",8 rats
same,age at which the first animal manifested the tumor,fibromyxosarcoma; 0.0001 mg/kg,20 month
same,age at which the first animal manifested the tumor,"fibromyxosarcoma; 0.0001 mg/kg, listed as BPAP",25 month
same,tumor manifestation suppressing (TMS) effect versus saline,"fibromyxosarcoma; 0.05 mg/kg, Kaplan-Meier, P<0.001 (FIG. 11)",significantly decreased
same,tumor manifestation suppressing (TMS) effect versus saline,"fibromyxosarcoma; 0.05 mg/kg, Kaplan-Meier, P<0.001 (FIG. 11), listed as BPAP",suppressed the manifestation of the fibromyxosarcoma significantly
same,month in which the last animal manifested the tumor,fibromyxosarcoma; 0.05 mg/kg,29 month
same,rats that manifested the tumor to the end of the 32nd month of age,fibromyxosarcoma; 0.05 mg/kg,7 rats
same,rats that manifested the tumor when the group completed the 30th month of life,"fibromyxosarcoma; 0.05 mg/kg, P<0.001",7 rats
same,age at which the first animal manifested the tumor,fibromyxosarcoma; 0.05 mg/kg,13 month
same,"span of time from tumor manifestation until death, versus saline",fibromyxosarcoma,no significant difference
same,effectiveness of tumor-cell proliferation inhibiting agents in combination,Daoy HTB-186 cell line; [3],did not change the effectiveness
same,"proliferation of cultured cells, monotherapy",Daoy HTB-186 cell line,did not inhibit the proliferation
same,"proliferation of cultured cells, monotherapy",Daoy HTB-186 cell line; listed as BPAP,In none of the applied concentrations
same,effectiveness of tumor-cell proliferation inhibiting agents in combination,UW-228-2 cell line; [3],did not change the effectiveness
same,"proliferation of cultured cells, monotherapy",UW-228-2 cell line,did not inhibit the proliferation
same,"proliferation of cultured cells, monotherapy",UW-228-2 cell line; listed as BPAP,In none of the applied concentrations
same,Number of detected lung carcinoma,"lung carcinoma; 0.0001 mg/kg daily, 4 dissected mice",0
same,Number of detected lung carcinoma,"lung carcinoma; 0.05 mg/kg daily, 4 dissected mice",1
same,manifestation of lung carcinoma,"lung carcinoma; specific enhancer (extremely low) dose, 18 months daily treatment",completely prevented
same,"released amount of labeled transmitter ([3H]-norepinephrine, [3H]-dopamine or [3H]-serotonin) versus absence of substance",[2],significantly higher
"C#CCN(C)[C@H](C)Cc1ccccc1 [(−)-Deprenyl, (R)—N-methyl-N-(1-phenylpropan-2-yl)prop-2-yn-1-amine]",month of age in which the first animal died,"[1]; 0.001 mg/kg s.c. 3 times a week, N=40",13 month
same,month of age in which the last animal died,"[1]; 0.001 mg/kg, N=40",32 month
same,rats remaining alive to the end of the 32nd month of age,"[1]; 0.001 mg/kg, N=40, P>0.05 vs saline",none
same,month of age in which the first animal died,"[1]; 0.1 mg/kg s.c. 3 times a week from 2 months of age, N=40",11 month
same,lifespan versus saline-treated peers,[1],did not prolong the lifespan of rats significantly
same,tumor manifestation suppressing (TMS) effect versus saline,"fibromyxosarcoma; 0.001 mg/kg, Kaplan-Meier (FIG. 10)",not significant
same,month in which the last animal manifested the tumor,fibromyxosarcoma; 0.001 mg/kg,29 month
same,rats that manifested the tumor to the end of the 32nd month of age,fibromyxosarcoma; 0.001 mg/kg,15 rats
same,age at which the first animal manifested the tumor,fibromyxosarcoma; 0.001 mg/kg,12 month
same,age at which the first animal manifested the tumor,fibromyxosarcoma; 0.1 mg/kg s.c. 3 times a week,16 month
same,tumor manifestation suppressing (TMS) effect versus saline,"fibromyxosarcoma; 0.1 mg/kg, Kaplan-Meier, P<0.01 (FIG. 9), listed as (−)-deprenyl",significantly decreased
same,tumor manifestation suppressing (TMS) effect versus saline,"fibromyxosarcoma; 0.1 mg/kg, Kaplan-Meier, P<0.01 (FIG. 9), listed as Deprenyl",suppressed the manifestation of the fibromyxosarcoma significantly
same,month in which the last animal manifested the tumor,fibromyxosarcoma; 0.1 mg/kg,32 month
same,rats that manifested the tumor to the end of the 32nd month of age,fibromyxosarcoma; 0.1 mg/kg,11 rats
same,rats that manifested the tumor when the group completed the 30th month of life,"fibromyxosarcoma; 0.1 mg/kg, P<0.01",11 rats
same,"span of time from tumor manifestation until death, versus saline",fibromyxosarcoma,no significant difference
same,"proliferation of cultured cells, monotherapy",Daoy HTB-186 cell line; listed as (−)-deprenyl,did not inhibit the proliferation
same,"proliferation of cultured cells, monotherapy",Daoy HTB-186 cell line; listed as Deprenyl,In none of the applied concentrations
same,"proliferation of cultured cells, monotherapy",UW-228-2 cell line; listed as (−)-deprenyl,did not inhibit the proliferation
same,"proliferation of cultured cells, monotherapy",UW-228-2 cell line; listed as Deprenyl,In none of the applied concentrations
same,Number of detected lung carcinoma,"lung carcinoma; 0.001 mg/kg daily, 2 dissected mice",0
same,Number of detected lung carcinoma,"lung carcinoma; 0.1 mg/kg daily, 4 dissected mice",1
same,"released amount of labeled transmitter ([3H]-norepinephrine, [3H]-dopamine or [3H]-serotonin) versus absence of substance",[2],significantly higher
